Results on one molecule are retold here after US4276890A, “Tobacco smoking inhibitor” (priority 1979, dated 1981).

This data set is described as follows: Volatility and storage stability. The data set is classed as physicochemical. As for the experimental part: The troches were made essentially by conventional candy making techniques. The polysaccharide and starch were first dry blended to substantial uniformity. About 3-4% by weight of water was added to the dry powder to form a thick paste. This paste was then heated to produce a uniform viscous melt. Maltol or ethyl maltol were added to this melt as saturated solutions in boiling water. The water solubility of the gamma pyrones is somewhat limited. For example, one gram of ethyl maltol requires 6 ml of water at 100° C. to dissolve completely. Since the water content of the mixture must be kept low, the amount of ethyl maltol which can be incorporated is about 3-4%, and preferably about 1% by weight of the troche. […] Alternatively, the entire process can be carried out in a suitable pressure apparatus.
A refined, bland chewing gum base, obtained from Adams Sour Apple gum, (Warner-Lambert, Inc., Morris Plains, N.J.) was heated to 45° C. in a 100 gram batch. Ethyl maltol, 300 to 400 mesh, 6.66 grams, was added to the chewing gum base with thorough mixing to provide an even distribution of particles throughout the mass. The mass was then rolled into individual 3 gram sticks and allowed to cool. Alternatively, the mass was rolled as a single thin rectangular slab, allowed to cool, then cut into 3 gram sticks. […] Each 3 gram stick contains 200 mg of ethyl maltol.

On to `CCc1occc(=O)c1O` [ethyl maltol, 3-hydroxy-2-ethyl-4-pyrone], for which the volatility result (especially at elevated temperatures) is “volatile, especially at elevated temperatures”. Further, the storage loss entry (unwrapped gum, room temperature) is given as “storage loss of ethyl maltol due to sublimation at room temperature”.
